One may read the melting point as the temperature, or range, at which the solid turns liquid. `Nc1ccc(Oc2ccc(S(=O)(=O)c3ccc(Oc4ccc(N)c(O)c4)cc3)cc2)cc1O` registered a melting point of 228 to 231 °C.

The compound `FC(F)(F)c1cc(-c2cccs2)[nH]n1` showed a melting point of 121 °C.

The compound `CCCCCNS(=O)(=O)NC(=O)OCc1ccc(OCCOC)cc1Oc1ncc(C(F)(F)F)cc1Cl` gave a melting point of 153 to 155 °C.

Consider `CN(C)C(=O)n1ccc(-c2ccc(Oc3ccc(F)cc3)cc2)n1`, for which the melting point fell in the range of 59 to 63 °C.

For the compound `O=C(O)c1ccc2ccc(S)cc2c1`, the melting point fell in the range of 211 to 216 °C.

Regarding `CCOCc1nc2c(N)nc3ccccc3c2n1CCCCCS(=O)(=O)NC`, the melting point lay in the range of 175 to 179 °C.

Take `Cc1nc(COc2cc(N)c(Cl)cc2C(=O)O)cs1`: the melting point lay in the range of 188 to 189 °C.

`O=C(NCCO)c1cccc(-c2cccc3oc(Cc4cccc(C(F)(F)F)c4)cc23)c1` showed a melting point of 135 to 136 °C.

As for `COc1ccc(C=CC(=O)N2CCN(c3nc(N)c4cc(OC)c(OC)cc4n3)CC2)cc1`, the melting point lay within 265 to 267 °C.

Compound `Cc1ccc(C)n1C(=O)c1cc2cc(Br)ccc2o1` showed a melting point of 115 to 116 °C.

As for `Oc1ccc(N=Cc2ccccc2)cc1`, the melting point lay within 182 to 183 °C.

Compound `CCOC(=O)c1oc2cc(O)ccc2c(=O)c1C(N)=O` had a melting point of over 320 °C.

With `CC(C)OC(=O)C(C)Oc1ncn(-c2cccc(C(F)(F)F)c2)n1` (centres undefined), the melting point lay in the range of 97 to 99 °C.

Turning to `NC(=O)NN=Cc1ccc(Oc2ccc([N+](=O)[O-])cc2)cc1`, the melting point was 221 to 222 °C.

In turn, `Cc1cc(=O)n2cccc(OCc3ccccc3Br)c2n1` displayed a melting point of 144 to 146 °C.

Turning to `CCOC(=O)c1c(O)c2cc(F)ccc2n(Cc2ccccc2)c1=O`, the melting point amounted to 129 °C.

On to `O=C1c2cc(Cl)ccc2N(N2CCCCC2)C2=NCCN12`, for which the melting point was in the range of 192 to 193 °C.

The compound `Brc1ccc(C23CC4(c5ccc(Br)cc5)CC(c5ccc(Br)cc5)(C2)CC(c2ccc(Br)cc2)(C3)C4)cc1` registered a melting point of 354 °C.

Take `CS(=O)(=O)OCCCc1cccc(OCc2coc(/C=C/c3ccccc3)n2)c1`: the melting point fell in the range of 75 to 76 °C.

Regarding `C/C(NCC(C)(C)C)=C(\C#N)C(N)=S`, the melting point is 143 to 144 °C.

As to `CC(=O)O[C@H]1[C@H](N2CCCNC2=NC#N)c2cc(C#N)ccc2OC1(C)C` (relative stereo), the melting point lay within 245 to 246 °C.

For `O=[N+]([O-])c1ccc2nc(Cl)c(Cc3ccccc3)cc2c1`, the melting point lay in the range of 159 to 161 °C.

`O=C(Nc1c(Cl)cccc1Cl)N(Cc1ccccc1)CC1(c2ccccc2)CCCC1` returned a melting point of 125 to 127 °C.

`CC(=O)c1cc(-c2cccc(Cl)c2)ccc1N` showed a melting point of 89 to 90 °C.

As for `CNc1nc(Nc2ccc(Cl)c(CNC(=O)OC(C)(C)C)c2)ncc1[N+](=O)[O-]`, the melting point is 195 °C.

In turn, `COC(=O)c1ccc(-c2nc(-c3ccccc3)co2)cc1` returned a melting point of 175 to 176 °C.

On to `N#Cc1cc(/C=C/C(c2cc(Cl)c(Cl)c(Cl)c2)C(F)(F)F)ccc1-n1cnc(N(C(=O)C2CC2)C(=O)C2CC2)n1` (centres undefined), for which the melting point fell in the range of 104 to 107 °C.

Regarding `CNC(=O)c1cc(Oc2ccc(NC(=O)Nc3ccc4c(c3)C(F)(F)OC(F)(F)O4)c(S(C)(=O)=O)c2)ccn1`, the melting point fell in the range of 222 to 224 °C.

In turn, `Clc1nc(-c2cccnc2)sc1Br` displayed a melting point of 114 to 115 °C.

In the case of `CNC1C(O)C(OC2C(N)CC(N)C(OC3OC(C(C)O)C(O)C(O)C3N)C2O)OCC1(C)O` (centres undefined), the melting point came to 65 °C.

On to `Cc1cc(-n2cnn(Cc3ccc(C(F)(F)F)cc3)c2=O)sc1C(=O)NCc1cccnc1`, for which the melting point was in the range of 176 to 178 °C.

For the compound `Cc1c(Cc2ccccc2)c(=O)[nH]c2cc(O)cc(O)c12`, the melting point lay within 307 to 312 °C.

Compound `N#Cc1c(N2CCc3ccccc3CC2)[nH]c(=S)[nH]c1=O` yielded a melting point of over 200 °C.

Consider `CNC(=C[N+](=O)[O-])NCCSCc1[nH]cnc1C`, for which the melting point was in the range of 141 to 143 °C.

Compound `COc1ccc(CC2SC(=O)NC2=O)c2c1N(Cc1ccc(C(=O)Nc3ccc(C(C)C)cc3)cc1)C(=O)CC2` (centres undefined) showed a melting point of 243 to 244 °C.

Take `Cc1nc2c(N[C@@H]3c4ccccc4C[C@H]3O)cc(C(=O)N(C)C)cc2n1C` (relative stereo): the melting point lay within 219 to 221 °C.

For the compound `Fc1cccc(CC2(Cc3ccncc3)c3cccnc3-c3ncccc32)n1`, the melting point is 180 to 182 °C.

Compound `O=[N+]([O-])c1ccc(-c2cnc(Nc3ccc(Oc4ccccc4)cc3)s2)cc1` gave a melting point of 191 to 196 °C.

The compound `Clc1cccc2c3c([nH]c12)-c1ccccc1C3` displayed a melting point of 139 °C.

In the case of `Cc1c(NC(=O)c2ccc(-c3ccc(Cl)s3)cc2F)ccc2cc(CN3CCCC3)cnc12`, the melting point was in the range of 160 to 162 °C.

Compound `CCCCCCCCCCCCSC(C)(C)C=NNC(=O)CCc1cc(C(C)(C)C)c(O)c(C(C)(C)C)c1` yielded a melting point of 53 to 57 °C.

In the case of `CCCn1nc2c(N)nc3ccccc3c2c1CCCCS(N)(=O)=O`, the melting point lay in the range of 211 to 213 °C.

The compound `Cn1c(COc2nc(CCC(=O)O)oc2-c2ccccc2)nc2ccccc21` had a melting point of 222 to 224 °C.

Consider `Nc1nc2ccccc2c2c1nc1n2C(CO)COC1` (centres undefined), for which the melting point is 239 to 240 °C.

On to `CSc1ccc(NC(=O)CN2CCN(CCSc3nc4ccccc4o3)CC2)c(C)n1`, for which the melting point was in the range of 116 to 117 °C.

The compound `Cc1nnc(-c2ccc3occ(-c4ccc(SC(C)C)cc4)c3c2)o1` had a melting point of 96 to 97 °C.

`CC(C)(C)OC(=O)N1C(=O)C2(COc3cc4c(cc32)OCO4)c2c(Br)cccc21` (centres undefined) yielded a melting point of 154 to 156 °C.

In turn, `O=C(c1ccc(Cl)cc1)N1CCc2nnc(Cl)cc2C1` registered a melting point of 170 to 172 °C.

`COc1cc(OC)cc(-c2nc[nH]c2-c2ccc(OC)c(O)c2)c1`: the melting point fell in the range of 181 to 182 °C.

`Cn1c(=O)[nH]c2cc3[nH]c(-c4cccnc4)nc3cc21` came in with a melting point of over 300 °C.

Turning to `FC(F)(F)c1cccc(-c2ccn3nccc3n2)c1`, the melting point lay in the range of 117 to 118 °C.

The compound `O=C(c1ccccc1)N1CCN(CC(O)Cn2c3ccccc3c3ccccc32)CC1` (centres undefined) had a melting point of 153 °C.

`CCOC(=O)C(=CNc1sc(I)cc1C(=O)OC)C(=O)OCC` registered a melting point of 163 to 164 °C.

Regarding `CC(C)Nc1cccnc1N1CCN(C(=O)c2ccc(C(=O)NC(C)(C)CO)cc2)CC1`, the melting point fell in the range of 113 to 115 °C.

Compound `O=C(NC1Cc2ccc([N+](=O)[O-])cc2C1)c1ccc(F)cc1` (centres undefined) gave a melting point of 167 °C.

In turn, `Nc1nc2c(s1)CCN(CC=Cc1ccoc1)CC2` had a melting point of 130 to 136 °C.

For the compound `O=Cc1ccc2c(c1)Sc1ccc(F)cc1C=C2`, the melting point lay in the range of 137 to 139 °C.

As to `CC1(C)CCC(Cc2ccc(Cl)cc2)C1(O)Cn1ncnc1S` (centres undefined), the melting point lay in the range of 179 to 180 °C.

As for `COC[C@@H]1CN(c2ccc(OCc3ccccc3)cc2)C(=O)O1`, the melting point was found to be 101 °C.

For `C=CC(C)c1cc(C)c2c(c1)C(=O)CC2` (centres undefined), the melting point is 88 to 92 °C.

Take `CCOC(=O)Cn1c(=O)[nH]c(=O)c2ccc(Cl)cc21`: the melting point was in the range of 242 to 243 °C.

Compound `CCCC(Cn1cncn1)(OCC)c1ccc(Cl)cc1Cl` (centres undefined) registered a melting point of 67 °C.

With `CCOP(=S)(OCC)OC(=O)/C(=N\OC(C)=O)c1csc(N)n1`, the melting point was 128 to 130 °C.

For `CSC[C@H](N)C(=O)NC(C)=O`, the melting point fell in the range of 120 to 123 °C.

Consider `O=C1C=C(OCCCCCCI)c2ccccc2C1=O`, for which the melting point lay within 85 to 87 °C.

In turn, `COc1cc(NC2=C(Cl)C(=O)c3ccccc3C2=O)ccc1S(=O)(=O)Nc1cccc(C)c1` displayed a melting point of 286 to 288 °C.

Take `Nc1nc2cccnc2c2c1nc(CCO)n2CC1(O)CCOCC1`: the melting point fell in the range of 226 to 227 °C.

`CCCCCN(CCC12CC3CC(CC(C3)C1)C2)C(=O)NCC(C)(C)Cc1ccncc1`: the melting point lay in the range of 82.5 to 84.9 °C.

`O=S(=O)(Nc1ccc2c(OCc3csc(-c4ccc(C(F)(F)F)cn4)n3)cccc2c1)C(F)(F)F` yielded a melting point of 197 to 198 °C.

The compound `O=C(Cc1ccc(F)cc1)N1C(=O)OC[C@@H]1Cc1ccccc1` yielded a melting point of 64 to 66 °C.

In turn, `COC(=O)Cc1n[nH]c2ccccc12` came in with a melting point of 146 °C.

Take `O=C(CBr)Nc1cc(Cl)ccc1C(=O)O`: the melting point lay within 156 to 158 °C.

As to `COC(=O)c1[nH]c2cccc(C)c2c1Sc1ccc(Cl)cc1`, the melting point was in the range of 192 to 193 °C.

Compound `CCOC(=O)COc1c(C(=O)OC)cc(Cl)cc1[N+](=O)[O-]` registered a melting point of 68 to 70 °C.

Turning to `O=C(CC(=O)C1CC1)Nc1ccc(C(F)(F)F)cc1`, the melting point was 131 to 132 °C.

For the compound `NC(=O)c1nc(CCl)n(-c2ccc(Cl)cc2C(=O)c2ccccc2)n1`, the melting point fell in the range of 128 to 130 °C.

`Cn1ccc(-n2ccnc2S)n1` came in with a melting point of 126 to 128 °C.

With `CN(C)C(=O)c1cc(-c2ccccc2)c(=O)n2c1-c1ccccc1C2`, the melting point was 207 to 209 °C.

In the case of `CC(C)(CCCCCCC(=O)CCCCCCC(C)(C)C(=O)O)C(=O)O`, the melting point was in the range of 74.5 to 76 °C.

Regarding `CC(C)C(=O)Nc1nc2c(ncn2C2OC(CO)C(O)C2OC2CCCO2)c(=O)[nH]1` (centres undefined), the melting point was in the range of 178 to 180 °C.

With `c1ccc(-c2cnc(N3CCc4c([nH]c5ccccc45)C3C3Cc4ccccc4O3)nc2)nc1` (centres undefined), the melting point was in the range of 170 to 171 °C.

As for `Nn1cccc1-c1ccccc1`, the melting point lay within 80 to 82 °C.

On to `COc1cc(NC(=O)N(CCCCCC(=O)O)c2ccccc2)c(O)c(C(C)(C)C)c1`, for which the melting point was in the range of 95 to 98 °C.

The compound `O=S(=O)(Nc1ccccc1O)c1cc(S(=O)(=O)Nc2ccccc2O)c2cc(O)ccc2c1` returned a melting point of 118 to 120 °C.

As for `O=C1N[C@@H](C(=O)N2C[C@H](O)C[C@H]2C(=O)O)CCCCCC[C@@H]1CS`, the melting point fell in the range of 128 to 130 °C.

In turn, `Cc1cc(-c2c[nH]cc2C#N)c(Cl)cc1F` showed a melting point of 132 to 133 °C.

For the compound `Cc1c(C2CCCCC2)nn(C)c1C1CCCCC1`, the melting point fell in the range of 120 to 122 °C.

Compound `COc1ccc2c(=O)[nH]c(-c3ccc(OCCNC(C)C)c(-c4ccc(S(C)(=O)=O)cc4)n3)nc2c1` had a melting point of 204 to 205 °C.

The compound `CCCCS(=O)(=O)NC1Cc2ccc(C(=O)CCC(=O)O)cc2C1` (centres undefined) yielded a melting point of 138 to 140 °C.

For the origin of these results see a melting point compilation (Tetko et al.; mined from patent text by program, amines drawn as free bases though some values may be those of a salt).
